Measured values reported in patent US20100204202A1, “DRUG FOR ALLEVIATING MOTOR COMPLICATIONS OR PSYCHIATRIC SYMPTOMS OF PARKINSON'S DISEASE” (Asubio Pharma Co., Ltd., priority 2007, published 2010).
Entries after “also recorded” stand apart in the source; their conditions may differ. Where a name gives a salt, the structure may show the parent alone. Read-outs that look alike come from different tables or passages of the source.

Columns and labels:
[1] = molecular target: T1, human serotonin 1A receptors (Homo sapiens, UniProt P08908); test: Binding affinity test on human serotonin 1A receptors ([3H]8-OH-DPAT, CHO-K1 membranes); conditions: for Ki: Serotonin 1A; for binding affinity (in words): human serotonin 1A receptors
T1 construct: expressed in transfected cells; host or cells: CHO-K1
T1 sequence (P08908 1-422): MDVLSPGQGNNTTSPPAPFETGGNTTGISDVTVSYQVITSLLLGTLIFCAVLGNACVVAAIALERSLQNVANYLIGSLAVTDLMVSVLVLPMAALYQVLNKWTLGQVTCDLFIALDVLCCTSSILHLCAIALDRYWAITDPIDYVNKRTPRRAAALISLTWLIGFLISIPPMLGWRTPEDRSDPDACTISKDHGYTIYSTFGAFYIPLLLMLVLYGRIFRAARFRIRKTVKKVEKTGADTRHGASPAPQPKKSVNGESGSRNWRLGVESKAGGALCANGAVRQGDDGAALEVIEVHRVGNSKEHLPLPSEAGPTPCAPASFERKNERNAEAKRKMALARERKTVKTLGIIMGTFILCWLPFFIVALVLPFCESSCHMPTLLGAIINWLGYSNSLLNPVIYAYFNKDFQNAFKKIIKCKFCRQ
Protocol: For the test, membrane specimens prepared from Chinese hamster ovary (CHO-K1) cells expressing human serotonin 1A receptors were used. To a 50 mM Tris-HCl buffer (pH 7.4) including 5 mM CaCl2, 0.1% ascorbic acid, and 10 μg/mL saponin, [^3H] […] The reaction solution was allowed to react at 25° C. for 60 minutes, then the reaction solution was filtered with a cell harvester, the filtered filter paper was transferred to a measurement vial, a liquid scintillator was added and the receptor bond radioactivity remaining on the filter paper was determined by a liquid scintillation counter. The nonspecific bonds were defined as the amount of bonds in the presence of 10 μM serotonin.
(§1) The following formula was used to calculate the binding inhibition rate: […]
Furthermore, the inhibition constant (Ki) was calculated.

[2] = molecular target: T2, human dopamine D2L receptors (Homo sapiens, UniProt P14416); test: Binding affinity test on human dopamine D2L receptors ([3H]spiperone, CHO membranes); conditions: for Ki: Dopamine D2L; for binding affinity (in words): human dopamine D2L receptors
T2 construct: expressed in transfected cells; host or cells: CHO
T2 sequence (P14416 whole entry): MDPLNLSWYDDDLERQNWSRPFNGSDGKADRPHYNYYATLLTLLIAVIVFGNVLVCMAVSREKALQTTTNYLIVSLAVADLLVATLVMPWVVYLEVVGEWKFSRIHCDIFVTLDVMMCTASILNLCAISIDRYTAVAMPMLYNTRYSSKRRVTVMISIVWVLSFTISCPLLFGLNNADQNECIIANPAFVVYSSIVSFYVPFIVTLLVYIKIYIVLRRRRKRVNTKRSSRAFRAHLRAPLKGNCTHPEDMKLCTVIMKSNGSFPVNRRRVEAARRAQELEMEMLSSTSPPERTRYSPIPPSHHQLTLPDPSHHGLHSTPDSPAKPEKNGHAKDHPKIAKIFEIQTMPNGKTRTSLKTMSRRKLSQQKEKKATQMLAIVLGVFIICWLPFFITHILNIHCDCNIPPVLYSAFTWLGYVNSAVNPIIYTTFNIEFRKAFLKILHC
Protocol: (§2) For the test, membrane specimens prepared from Chinese hamster ovary (CHO) cells expressing human dopamine D2L receptors were used. To a 50 mM Tris-HCl (pH 7.4) buffer containing 1.4 mM ascorbic acid, 0.001% BSA, and 150 mM NaCl, [^3H] spiperone (final concentration 0.16 nM), the test sample solution and a membrane specimen were added. The reaction solution was allowed to react at 25° C. for 2 hours, then the reaction solution was filtered with a cell harvester, the filtered filter paper was transferred to a measurement vial, a liquid scintillator was added and the receptor bond radioactivity remaining on the filter paper was determined by a liquid scintillation counter. The nonspecific bonds were defined as the amount of bonds in the presence of 10 μM haloperidol.
The following formula was used to calculate the binding inhibition rate:
[amount of [^3H] spiperone bonds in the presence of 10 μM haloperidol]}/{[amount of [^3H] spiperone bonds in the absence of test sample]−[amount of [^3H] spiperone bonds in the presence of 10 μM haloperidol]}
(§3) From the binding inhibition rate, a regression formula was used to calculate the 50% inhibition concentration. Furthermore, the inhibition constant (Ki) was calculated.

[3] = molecular target: T3, human dopamine D2S receptors (Homo sapiens, UniProt P14416); test: Binding affinity test on human dopamine D2S receptors ([3H]spiperone, CHO membranes); conditions: for Ki: Dopamine D2S; for binding affinity (in words): human dopamine D2S receptors
T3 construct: expressed in transfected cells; host or cells: CHO
T3 sequence (P14416 1-414 isoform P14416-2): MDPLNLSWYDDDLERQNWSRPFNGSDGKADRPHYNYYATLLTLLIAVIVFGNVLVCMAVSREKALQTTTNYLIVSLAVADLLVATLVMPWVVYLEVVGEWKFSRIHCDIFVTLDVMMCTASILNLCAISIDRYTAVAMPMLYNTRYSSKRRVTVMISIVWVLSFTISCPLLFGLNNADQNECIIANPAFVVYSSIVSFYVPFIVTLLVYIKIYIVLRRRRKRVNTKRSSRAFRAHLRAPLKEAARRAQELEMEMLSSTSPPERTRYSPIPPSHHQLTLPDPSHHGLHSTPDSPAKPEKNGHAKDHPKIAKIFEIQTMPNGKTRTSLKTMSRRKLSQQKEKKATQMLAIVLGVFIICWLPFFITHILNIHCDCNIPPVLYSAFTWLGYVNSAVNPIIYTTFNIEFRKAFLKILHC
Protocol: as §2, with “dopamine D2S” for “dopamine D2L”, “was added,” for “was added”, “determined with” for “determined by”
as §1, §3

[4] = molecular target: T2, human dopamine D2L receptors; test: Agonist/antagonist assay, [35S]GTPgammaS binding, human dopamine D2L receptors; format: biochemical; conditions: for EC50 / Emax / IC50: Dopamine D2L; for antagonist activity (in words): human dopamine D2L receptors
Protocol: (§4) For the tests, membrane specimens prepared from Chinese hamster ovary (CHO-K1) cells expressing human serotonin 1A receptors, Chinese hamster ovary (CHO) cells expressing human dopamine D2L receptors, Chinese hamster ovary (CHO) cells expressing human dopamine D2S receptors and Chinese hamster ovary (CHO) cells expressing human dopamine D3 receptors were used. In the agonist assays, for the serotonin 1A receptors, [^35S] GTPγS (final concentration 0.1 nM), a GDP solution (final concentration 3 μM), the test sample solution and a membrane specimen were added to a 20 mM Hepes-NaOH buffer (pH 7.4) containing 100 mM NaCl, 3 mM MgCl2 and 10 μg/mL saponin and allowed to react at 25° C. for 30 minutes. Further, for the dopamine (D2L, D2S and D3) receptors, [^35S] GTPγS (i.e., final concentration 0.1 nM), a GDP solution (final concentration 3 μM), the test sample solution and a membrane specimen were added to a 20 mM Hepes-NaOH buffer (pH 7.4) containing 100 mM NaCl, 10 mM MgCl2, 1 mM DTT and 1 mM EDTA and allowed to react at 30° C. for 15 minutes (in the case of D2L receptors) or for 30 minutes (in the cases of D2S and D3 receptors). Further, in the antagonist assays, except for adding to the reaction solutions 10 μM 5-carboxamide tryptamine (5-CT) (in the case of serotonin 1A receptors), 3 μM dopamine (in the cases of D2L and D2S receptors), or 0.1 μM dopamine (in the case of D3 receptors), operations were performed similar to the agonistic tests. After the end of the reaction, the reaction solution was filtered with a cell harvester, the filtered filter paper was transferred to a measurement vial, a liquid scintillator was added, and the radioactivity of the [^35S] GTPγS remaining on the filter paper was determined by a liquid scintillation counter. The human serotonin 1A receptor and human dopamine (D2L, D2S, and D3) receptor agonist/antagonist activities of the test sample were expressed as the rates of increase, when making the increase in [^35S] GTPγS bonds due to 10 μM 5-CT (in the case of serotonin 1A receptors), 3 μM dopamine (in the cases of D2L and D2S receptors), or 0.1 μM dopamine (in the case of D3 receptors) 100%. From the bond increasing rate, a regression formula was used to calculate the 50% reaction concentration (EC50) and 50% inhibition concentration (IC50).

[5] = molecular target: T4, human dopamine D3 receptors (Homo sapiens, UniProt P35462); test: Agonist/antagonist assay, [35S]GTPgammaS binding, human dopamine D3 receptors; format: biochemical; conditions: for agonist activity (in words) / antagonist activity (in words): human dopamine D3 receptors
T4 construct: expressed in transfected cells; host or cells: CHO
T4 sequence (P35462 whole entry): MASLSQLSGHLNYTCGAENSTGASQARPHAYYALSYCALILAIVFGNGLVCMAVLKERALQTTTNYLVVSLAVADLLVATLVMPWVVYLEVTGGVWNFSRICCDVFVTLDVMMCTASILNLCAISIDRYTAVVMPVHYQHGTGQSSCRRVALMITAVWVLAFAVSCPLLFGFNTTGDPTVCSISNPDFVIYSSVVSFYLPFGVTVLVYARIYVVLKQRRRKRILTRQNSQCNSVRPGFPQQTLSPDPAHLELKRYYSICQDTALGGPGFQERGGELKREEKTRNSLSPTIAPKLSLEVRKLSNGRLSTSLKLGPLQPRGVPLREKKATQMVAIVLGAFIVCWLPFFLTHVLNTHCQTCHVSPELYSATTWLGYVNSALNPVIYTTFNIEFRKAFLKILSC
Protocol: as §4

[6] = 3 μM dopamine = 100%, read-out: Agonist assay Emax
[7] = with 3 μM dopamine, read-out: Antagonist assay Emax
[8] = Dopamine D3, 0.1 μM dopamine = 100%, read-out: Agonist assay Emax
[9] = Dopamine D3, read-out: Agonist assay EC50
[10] = Dopamine D3, with 0.1 μM dopamine, read-out: Antagonist assay Emax
[11] = Dopamine D3, with 0.1 μM dopamine, read-out: Antagonist assay IC50

| Compound | Ki [1] [nM] | Ki [2] [nM] | binding affinity (in words) [2] | Ki [3] [nM] | binding affinity (in words) [3] | EC50 [4] [nM] | Emax [4, 6] [%] | IC50 ([4]; with 3 μM dopamine) [nM] | Emax [4, 7] [%] | antagonist activity (in words) [4] | Emax [5, 8] [%] | EC50 [5, 9] [nM] | Emax [5, 10] [%] | IC50 [5, 11] [nM] | agonist activity (in words) [5] | antagonist activity (in words) [5] | binding affinity (in words) [1] | also measured |
| --- | --- | --- | --- | --- | --- | --- | --- | --- | --- | --- | --- | --- | --- | --- | --- | --- | --- | --- |
| Cl.Cl.O=c1[nH]c2cccc(C3CCCN(Cc4cncc(-c5ccc(F)cc5)c4)C3)c2o1 (stereo not drawn) [7-(1-{[5-(4-fluorophenyl)pyridin-3-yl]methyl}piperidin-3-yl)-1,3-benzoxazol-2(3H)-one dihydrochloride] | 2.67 | 5.42 | comparatively strong binding affinity | 6.34 | comparatively strong binding affinity | > 500 | 18 | 72.9 | 75 | antagonist activity | 69 | 1.4 | 22 | > 500 | strong agonist activity | no antagonist activity was exhibited | – | – |
| O=C1c2ccccc2OC=C(Cl)N1CCCCN1CC=C(c2ccccn2)CC1 [SUN N4057, 3-chloro-4,5-dihydro-4-{4-[4-(2-pyridyl)-1,2,3,6-tetrahydropyridin-1-yl]butyl}-1,4-benzoxazepin-5-one.dihydrochloride-dihydrate] | 0.0249 | 161 | – | 162 | – | > 500 | 27 | > 500 | 47 | does not have an antagonist action | 77 | 2.12 | 13 | > 500 | strong agonist activity; also recorded: has an agonist action | no antagonist activity was exhibited | particularly strong binding affinity | – |
| Cl.Cl.Fc1ccc(-c2cncc(CNC[C@H]3CCc4ccccc4O3)c2)cc1 [Sarizotan, 1-[(2R)-3,4-dihydro-2H-chromen-2-yl]-N-{[5-(4-fluorophenyl)pyridin-3-yl]methyl}methanamine dihydrochloride] | 0.0293 | 3.29 | comparatively strong binding affinity | 2.56 | comparatively strong binding affinity | > 500 | 2 | 13.3 | 101 | antagonist activity | – | – | – | – | did not exhibit an agonist activity | weak antagonist activity | particularly strong binding affinity | EC50 [5]: > 500 nM; IC50 [5]: 181 nM; Emax ([5]; read-out: Agonist assay Emax): 14%; Emax ([5]; read-out: Antagonist assay Emax): 65% |
